Experimental data from patent US6136817A, “Opioid receptor antagonist compounds” (Astra AB, priority 1994, dated 2000).
Structures can show the parent of a compound that is named as a salt.

Biological target: T1, δ opioid receptors (Mus musculus, UniProt P32300)
T1 construct: antagonism of the delta-selective agonist DPDPE
Assay: opioid antagonism against receptor selective agonists (DAMGO, μ; Cl 977, κ; DPDPE, δ) in electrical stimulated guinea-pig ileum (GPI) and mouse vas deferens (MVD) preparations
Assay type: cell-based
Description: δ-Antagonism was assessed using the electrical stimulated guinea-pig ileum longitudinal muscle preparation (GPI; containing μ and κ opioid receptors) and mouse vas deferens preparation (MVD; containing μ, κ and δ opioid receptors) (H. Schmidhammer et al., J. Med. Chem., Vol. 32: 418-421, 1989; H Schnmidhammer et al., J. Med. Chem., Vol. 33:1200-1206,1990). The activity of the compound 1 of the Examples for inhibiting the suppression of contraction of the organs by three receptor selective agonists (DAMGO, μ; Cl 977, κ; DPDPE, δ) was measured.

T1 sequence (P32300 whole entry): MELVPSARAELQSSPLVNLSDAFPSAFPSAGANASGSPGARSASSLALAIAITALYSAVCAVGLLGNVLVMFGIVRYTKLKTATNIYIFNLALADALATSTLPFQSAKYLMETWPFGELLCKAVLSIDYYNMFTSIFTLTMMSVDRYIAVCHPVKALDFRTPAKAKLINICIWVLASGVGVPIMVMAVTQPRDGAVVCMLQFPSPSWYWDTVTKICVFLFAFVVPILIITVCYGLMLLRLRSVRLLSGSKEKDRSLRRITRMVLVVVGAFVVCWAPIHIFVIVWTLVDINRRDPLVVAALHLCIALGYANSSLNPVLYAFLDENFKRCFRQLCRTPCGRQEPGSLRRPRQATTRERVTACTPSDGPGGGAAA

For `CCO[C@@]12Cc3c([nH]c4ccccc34)[C@]3(C)Oc4c(O)ccc5c4[C@@]31CCN(CC1CC1)[C@@H]2C5` [compound 1, 17-(Cyclopropylmethyl)-6,7-dehydro-4,5α-epoxy-14-ethoxy-3-hydroxy-5-methyl-6,7-2',3'-indolomorphinan hydrochloride], the “opioid antagonism (inhibiting the suppression of contraction of the organs by receptor selective agonists)” value (GPI and MVD preparations, agonists DAMGO (μ), Cl 977 (κ), DPDPE (δ)) was “δ-selective opioid antagonism”, the κ/δ selectivity ratio (antagonism of Cl 977 (κ) vs DPDPE (δ)) was “very good” and the μ/δ selectivity ratio (antagonism of DAMGO (μ) vs DPDPE (δ)) was “very good”.
